In patent US20250214951A1, “3-PHENYLISOXAZOLE DERIVATIVE, AND PHARMACEUTICAL COMPOSITION FOR PREVENTING OR TREATING EYE DISEASE, CONTAINING SAME AS ACTIVE INGREDIENT” (VASTHERA CO., LTD., priority 2022, published 2025):

What was measured:
[1] = system: A2E-BDP present in human retinal pigment epithelial cells (ARPE-19); assay: Screening of ability to remove A2E-fluorescent labeling substance (A2E-BDP), lysate fluorescence; assay type: cell-based; conditions: ARPE-19, 24 h, ARPE-19 loaded with 10 μM A2E-BDP 24 h, test compound 50 μM once, fluorescence ex 485/em 535 nm, read-out: Capacity (%) to remove A2E-BDP at 50 μM
Method: (§1) The human retinal pigment epithelial cell line (ARPE-19) used in the experiment was provided by ATCC (American Type Culture Collection). The ARPE-19 cell line was cultured in DMEM medium containing 10% FBS. After culture, the cells were dispensed into 96-well plates at a concentration of 4×10^3 cells/well and cultured for 24 hours. The ARPE-19 cell line was treated with A2E-fluorescent labeling substance (A2E-BDP) at a concentration of 10 μM for 24 hours to induce the accumulation of A2E-BDP in the ARPE-19 cell line.
(§2) In order to evaluate the intracellular A2E removal ability of the compound of the present invention, an easily detectable A2E-fluorescent labeling substance (A2E-BDP) was used. The ARPE-19 cells prepared by the above method were treated with each test compound at a concentration of 50 μM once, and then cultured for 24 hours. The cells were lysed by adding a cell lysis buffer containing a protease inhibitor (50 mM Tris-chloride, pH 8.0, 150 mM sodium chloride, 1% NP-40, 1% sodium deoxycholate, 1% sodium dodecyl sulfate, and 2 mM ethylenediamine tetraacetic acid) to each 96-well. The prepared cell lysate was transferred to a white 96-well plate, and the fluorescence intensity was measured using a fluorescence microplate reader (VICTOR™ X3, Perkin Elmer, USA) (excitation 485 nm, emission 535 nm).

[2] = system: A2E-BDP in ARPE-19 cells; assay: A2E-BDP removal ability by concentration of other example compounds; assay type: cell-based, human; conditions: indicated concentrations; FIG. 13
Method: as §1, §2
The A2E-fluorescent labeling substance (A2E-BDP) removal ability was evaluated according to Experimental Example 1 (except that the test compound was treated at the indicated concentration).

[3] = system: p62 protein phosphorylated at serine 349 (p-p62 (S349)); assay: Autophagy activation by increase of p-p62 (S349), Western immunoblotting; assay type: cell-based, human; conditions: indicated concentrations; FIG. 14
Method: The cells were treated with the test compounds at the indicated concentrations, and the autophagy activation effect through the increase of p62 protein (p-p62 (S349)) phosphorylated at serine 349 residue was measured by Western immunoblotting using an anti-p-p62 antibody, and the results are shown in FIG. 14. The increase in the intracellular P-p62 ([…]) level is one of the major indicators of autophagy activation.

[4] = system: LC3-II; assay: Concentration-dependent autophagy activation through increase of LC3-II (FIGS. 15 and 16); assay type: cell-based, human
Method: (§3) ARPE-19 was dispensed into a 6-well plate at a concentration of 1×10^5 cells/well and cultured for 24 hours. Then, cells were treated with example 17 compound of the present invention at concentrations of 10, 25, and 50 μM for 12 hours. Then, a cell lysis buffer containing a protease inhibitor was added to prepare a cell lysate. The LC3-II level was measured by Western immunoblotting using an anti-LC3-II antibody (Cell Signaling Technology, MA, USA). As an internal control, an antibody against β-actin (Cell Signaling Technology) was used and measured by Western immunoblotting in the same manner as above, and is shown in FIG. 6 (upper graph).
(§4) The autophagy activation effect of example compounds expected to have autophagy activation ability and low cytotoxicity among the example compounds in Table 2 above in human retinal pigment epithelial cells was evaluated according to Experimental Example 7. That is, the autophagy activation effect through the increase of LC3-II was evaluated in a concentration-dependent manner, and the results are shown in FIGS. 15 and 16.

[5] = system: LC3-II; assay: LC3-II production capacity at 10 μM (Table 4); assay type: cell-based; conditions: Homo sapiens, 12 h
Method: as §3, §4

Compound	inhibition at 50 µM [1]	further results
CCCc1cc(-c2cc(Br)ccc2OC)no1 [Example 1, 3-(5-bromo-2-methoxyphenyl)-5-propylisoxazole]	20.8%	–
CCCc1cc(-c2cc(Br)ccc2O)no1 [Example 2, 4-bromo-2-(5-propylisoxazole-3-yl)phenol]	28.2%	–
CCCc1ccc(OC)c(-c2cc(CCC)on2)c1 [Example 3, 3-(2-methoxy-5-propylphenyl)-5-propylisoxazole]	0.6%	–
C=CCc1ccc(OC)c(-c2cc(CCC)on2)c1 [Example 4, 3-(5-allyl-2-methoxyphenyl)-5-propylisoxazole]	24.7%	–
C=CCc1ccc(O)c(-c2cc(CCC)on2)c1 [Example 5, 4-allyl-2-(5-propylisoxazole-3-yl)phenol]	26.9%	–
CCCc1ccc(O)c(-c2cc(CCC)on2)c1 [Example 6, 4-propyl-2-(5-propylisoxazole-3-yl)phenol]	24%	–
COc1ccc(Br)cc1-c1cc(CO)on1 [Example 7, (3-(5-bromo-2-methoxyphenyl)isoxazole-5-yl)methanol]	16.6%	–
OCc1cc(-c2cc(Br)ccc2O)no1 [Example 8, 4-bromo-2-(5-(hydroxymethyl)isoxazole-3-yl)phenol]	-15.3%	–
C=CCOCc1cc(-c2cc(Br)ccc2OC)no1 [Example 9, 5-((allyloxy)methyl)-3-(5-bromo-2-methoxyphenyl)isoxazole]	26.2%	–
CCCc1ccc(OC)c(-c2cc(CO)on2)c1 [Example 10, (3-(2-methoxy-5-propylphenyl)isoxazole-5-yl)methanol]	7.7%	–
COc1ccc(Br)cc1-c1cc(COCc2ccccc2)on1 [Example 11, 5-((benzyloxy)methyl)-3-(5-bromo-2-methoxyphenyl)isoxazole]	≥ 60%	A2E-BDP removal ability by concentration (amount of A2E) [2]: concentration-dependent decrease in the amount of A2E; autophagy activation through increase of p-p62 (S349) [3]: activated autophagy in a concentration-dependent manner
CCOC(=O)COCc1cc(-c2cc(Br)ccc2OC)no1 [Example 12, ethyl 2-((3-(5-bromo-2-methoxyphenyl)isoxazole-5-yl)methoxy)acetate]	21.7%	–
COCc1cc(-c2cc(Br)ccc2OC)no1 [Example 13, 3-(5-bromo-2-methoxyphenyl)-5-(methoxymethyl)isoxazole]	31%	–
CCCc1ccc(O)c(-c2cc(CO)on2)c1 [Example 14, 2-(5-(hydroxymethyl)isoxazole-3-yl)-4-propylphenol]	35.2%	–
C=CCc1ccc(OC)c(-c2cc(CO)on2)c1 [Example 15, (3-(5-allyl-2-methoxyphenyl)isoxazole-5-yl)methanol]	48.1%	–
C=CCc1ccc(O)c(-c2cc(CO)on2)c1 [Example 16, 4-allyl-2-(5-(hydroxymethyl)isoxazole-3-yl)phenol]	49.9%	–
C=CCc1ccc(OC)c(-c2cc(COCc3ccccc3)on2)c1 [Example 18, 3-(5-allyl-2-methoxyphenyl)-5-((benzyloxy)methyl)isoxazole]	≥ 60%	A2E-BDP removal ability by concentration (amount of A2E) [2]: concentration-dependent decrease in the amount of A2E; autophagy activation through increase of p-p62 (S349) [3]: activated autophagy in a concentration-dependent manner

Compound	inhibition at 50 µM [1]	further results
C=CCc1ccc(OC)c(-c2cc(COCC(=O)OCC)on2)c1 [Example 19, ethyl 2-((3-(5-allyl-2-methoxyphenyl)isoxazole-5-yl)methoxy)acetate]	37.4%	–
CCCc1ccc(OC)c(-c2cc(COC)on2)c1 [Example 20, 3-(2-methoxy-5-propylphenyl)-5-(methoxymethyl)isoxazole]	17.2%	–
COc1ccc(Br)cc1-c1cc(CN2CCN(C(=O)OC(C)(C)C)CC2)on1 [Example 21, tert-butyl 4-((3-(5-bromo-2-methoxyphenyl)isoxazole-5-yl)methyl)piperazine-1-carboxylate]	≥ 60%	A2E-BDP removal ability by concentration (amount of A2E) [2]: concentration-dependent decrease in the amount of A2E; autophagy activation through increase of p-p62 (S349) [3]: activated autophagy in a concentration-dependent manner
C=CCc1ccc(OC)c(-c2cc(CN3CCN(CC=C)CC3)on2)c1 [Example 22, 3-(5-allyl-2-methoxyphenyl)-5-((4-allylpiperazine-1-yl)methyl)isoxazole]	47.4%	–
C=CCc1ccc(OC)c(-c2cc(CN3CCN(Cc4ccccc4)CC3)on2)c1 [Example 23, 3-(5-allyl-2-methoxyphenyl)-5-((4-benzylpiperazine-1-yl)methyl)isoxazole]	45.5%	–
C=CCc1ccc(OC)c(-c2cc(CN3CCN(CC(=O)OCC)CC3)on2)c1 [Example 24, ethyl 2-(4-((3-(5-allyl-2-methoxyphenyl)isoxazole-5-yl)methyl)piperazine-1-yl)acetate]	38.5%	–
C=CCc1ccc(OC)c(-c2cc(CN3CCN(C(=O)OC(C)(C)C)CC3)on2)c1 [Example 25, tert-butyl 4-((3-(5-allyl-2-methoxyphenyl)isoxazole-5-yl)methyl)piperazine-1-carboxylate]	45.9%	–
COc1ccc(Br)cc1-c1cc(CN2CCNCC2)on1 [Example 28, 3-(5-bromo-2-methoxyphenyl)-5-(piperazine-1-ylmethyl)isoxazole]	–	autophagy activation effect through the increase of LC3-II [4]: excellent autophagy activation effects; fold induction at 10 µM [5]: 4.6
CCCc1ccc(OC)c(-c2cc(CN3CCNCC3)on2)c1 [Example 30, 3-(2-methoxy-5-propylphenyl)-5-(piperazine-1-ylmethyl)isoxazole]	–	autophagy activation effect through the increase of LC3-II [4]: excellent autophagy activation effects; fold induction at 10 µM [5]: 2.3
COc1ccc(C(F)(F)F)cc1-c1cc(CN2CCNCC2)on1 [Example 34, 3-(2-methoxy-5-(trifluoromethyl)phenyl)-5-(piperazine-1-ylmethyl)isoxazole]	–	autophagy activation effect through the increase of LC3-II [4]: excellent autophagy activation effects; fold induction at 10 µM [5]: 2.5
C=CCc1ccc(OC)c(-c2cc(CN3CCN(C)CC3)on2)c1 [Example 41, 3-(5-allyl-2-methoxyphenyl)-5-((4-methylpiperazine-1-yl)methyl)isoxazole]	–	autophagy activation effect through the increase of LC3-II [4]: excellent autophagy activation effects; fold induction at 10 µM [5]: 2.3
CCCc1ccc(OC)c(-c2cc(CN3CCN(C)CC3)on2)c1 [Example 42, 3-(2-methoxy-5-propylphenyl)-5-((4-methylpiperazine-1-yl)methyl)isoxazole]	–	autophagy activation effect through the increase of LC3-II [4]: excellent autophagy activation effects; fold induction at 10 µM [5]: 2.3
COc1ccc(C(C)C)cc1-c1cc(CN2CCNCC2)on1 [Example 47, 3-(5-isopropyl-2-methoxyphenyl)-5-(piperazine-1-ylmethyl)isoxazole]	–	autophagy activation effect through the increase of LC3-II [4]: excellent autophagy activation effects; fold induction at 10 µM [5]: 2.7
CCCc1cc(-c2cc(CN3CCNCC3)on2)c(OC)cc1F [Example 58, 3-(4-fluoro-2-methoxy-5-propylphenyl)-5-(piperazine-1-ylmethyl)isoxazole]	–	autophagy activation effect through the increase of LC3-II [4]: excellent autophagy activation effects; fold induction at 10 µM [5]: 3.2
CCCc1cc(-c2cc(CN3CCN(C)CC3)on2)c(OC)cc1F [Example 59, 3-(4-fluoro-2-methoxy-5-propylphenyl)-5-((4-methylpiperazine-1-yl)methyl)isoxazole]	–	autophagy activation effect through the increase of LC3-II [4]: excellent autophagy activation effects; fold induction at 10 µM [5]: 3.1
CCCc1ccc(OC(F)(F)F)c(-c2cc(CN3CCN(C)CC3)on2)c1 [Example 60, 5-((4-methylpiperazine-1-yl)methyl)-3-(5-propyl-2-(trifluoromethoxy)phenyl)isoxazole]	–	autophagy activation effect through the increase of LC3-II [4]: excellent autophagy activation effects; fold induction at 10 µM [5]: 3.1
